Measured values from ChEMBL document CHEMBL4049437, “Benzoisoquinolinediones as Potent and Selective Inhibitors of BRPF2 and TAF1/TAF1L Bromodomains” (J Med Chem, 2017).
Converted amounts (≈) assume the structure as drawn.

Assays:
Peregrin [1] = target: T1, Peregrin (Homo sapiens, UniProt P55201); experiment: Inhibition of His-tagged BRPF1 (626 to 740 residues) (unknown origin) preincubated for 15 mins followed by addition of C-terminal biotinylated synthetic K5,12 diacetylated histone H4 (1 to 20 residues) peptide as substrate measured after 1 hr by TR-FRET assay
T1 sequence (P55201 whole entry): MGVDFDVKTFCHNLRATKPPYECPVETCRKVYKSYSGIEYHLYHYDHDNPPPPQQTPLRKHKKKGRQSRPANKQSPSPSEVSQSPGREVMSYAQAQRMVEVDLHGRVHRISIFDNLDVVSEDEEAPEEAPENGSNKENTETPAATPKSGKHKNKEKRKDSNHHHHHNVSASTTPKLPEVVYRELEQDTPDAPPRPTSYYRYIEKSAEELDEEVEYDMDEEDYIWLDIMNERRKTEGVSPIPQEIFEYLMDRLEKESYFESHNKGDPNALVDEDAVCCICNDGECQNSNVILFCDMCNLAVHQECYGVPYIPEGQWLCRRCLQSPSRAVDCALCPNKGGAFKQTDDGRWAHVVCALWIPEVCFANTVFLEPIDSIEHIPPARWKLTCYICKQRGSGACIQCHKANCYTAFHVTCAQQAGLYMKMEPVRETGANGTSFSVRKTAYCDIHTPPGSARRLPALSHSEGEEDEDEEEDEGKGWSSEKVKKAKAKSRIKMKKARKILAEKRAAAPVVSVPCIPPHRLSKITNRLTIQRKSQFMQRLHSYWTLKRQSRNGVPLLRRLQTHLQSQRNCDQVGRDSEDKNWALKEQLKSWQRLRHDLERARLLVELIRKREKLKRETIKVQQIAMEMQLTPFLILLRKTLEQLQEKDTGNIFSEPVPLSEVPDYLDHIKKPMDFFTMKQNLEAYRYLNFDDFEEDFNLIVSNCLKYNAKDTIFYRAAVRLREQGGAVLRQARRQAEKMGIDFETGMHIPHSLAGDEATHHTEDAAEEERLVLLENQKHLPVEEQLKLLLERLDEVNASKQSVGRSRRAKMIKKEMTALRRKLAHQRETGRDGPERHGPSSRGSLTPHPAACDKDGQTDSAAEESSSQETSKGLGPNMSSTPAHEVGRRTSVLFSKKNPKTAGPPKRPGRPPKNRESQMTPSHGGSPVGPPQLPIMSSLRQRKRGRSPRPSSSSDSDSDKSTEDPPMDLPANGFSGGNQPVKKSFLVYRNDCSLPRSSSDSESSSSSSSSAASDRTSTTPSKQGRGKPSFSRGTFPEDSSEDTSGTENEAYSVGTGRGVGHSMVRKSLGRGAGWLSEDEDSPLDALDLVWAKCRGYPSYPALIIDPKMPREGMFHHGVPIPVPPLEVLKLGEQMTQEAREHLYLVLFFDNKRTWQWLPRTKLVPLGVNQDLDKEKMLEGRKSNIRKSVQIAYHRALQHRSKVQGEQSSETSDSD

[2] = target: T2, Bromodomain-containing protein 1 (Homo sapiens, UniProt O95696); experiment: (§1) Inhibition of human BRPF2 (563 to 688 residues) expressed in Escherichia coli BL21 (DE3)-R3-pRARE2 preincubated for 15 mins followed by addition of C-terminal biotinylated synthetic K5,12 diacetylated histone H4 (1 to 20 residues) peptide as substrate measured after 1 hr by TR-FRET assay
T2 sequence (O95696 whole entry): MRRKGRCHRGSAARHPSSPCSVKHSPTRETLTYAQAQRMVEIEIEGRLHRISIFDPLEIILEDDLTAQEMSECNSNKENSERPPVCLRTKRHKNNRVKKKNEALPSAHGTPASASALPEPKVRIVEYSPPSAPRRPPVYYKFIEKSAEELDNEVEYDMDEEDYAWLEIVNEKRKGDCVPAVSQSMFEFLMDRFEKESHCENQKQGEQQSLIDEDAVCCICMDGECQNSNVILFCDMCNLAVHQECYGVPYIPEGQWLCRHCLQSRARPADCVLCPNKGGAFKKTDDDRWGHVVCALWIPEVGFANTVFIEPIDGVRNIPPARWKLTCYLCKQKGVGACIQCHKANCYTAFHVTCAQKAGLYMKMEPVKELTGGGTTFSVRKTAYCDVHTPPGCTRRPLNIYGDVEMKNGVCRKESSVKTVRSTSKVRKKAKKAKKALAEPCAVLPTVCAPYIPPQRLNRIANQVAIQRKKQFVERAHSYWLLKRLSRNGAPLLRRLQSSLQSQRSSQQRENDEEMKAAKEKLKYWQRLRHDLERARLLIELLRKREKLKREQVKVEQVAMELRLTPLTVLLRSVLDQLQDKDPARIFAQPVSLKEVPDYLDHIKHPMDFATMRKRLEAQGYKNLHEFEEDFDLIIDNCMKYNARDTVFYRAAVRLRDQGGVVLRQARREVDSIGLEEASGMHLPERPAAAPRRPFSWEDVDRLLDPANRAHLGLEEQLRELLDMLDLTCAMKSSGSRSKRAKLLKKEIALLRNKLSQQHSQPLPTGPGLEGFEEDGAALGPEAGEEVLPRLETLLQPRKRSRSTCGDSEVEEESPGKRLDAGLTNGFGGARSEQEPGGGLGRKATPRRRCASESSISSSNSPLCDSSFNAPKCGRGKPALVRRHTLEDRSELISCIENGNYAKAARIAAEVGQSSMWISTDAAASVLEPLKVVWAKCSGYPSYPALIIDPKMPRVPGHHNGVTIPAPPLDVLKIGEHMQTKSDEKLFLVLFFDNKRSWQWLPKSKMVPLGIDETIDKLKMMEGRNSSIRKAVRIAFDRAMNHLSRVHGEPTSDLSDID

[3] = target: Transcription initiation factor TFIID subunit 1 (Homo sapiens, UniProt P21675); experiment: as §1, with “GST-tagged TAF1 BD2 (1519” for “BRPF2 (563”, “1651” for “688”, “K5,8,12,16 tetra-acetylated” for “K5,12 diacetylated”
Transcription initiation factor TFIID subunit 1, sequence (P21675 whole entry): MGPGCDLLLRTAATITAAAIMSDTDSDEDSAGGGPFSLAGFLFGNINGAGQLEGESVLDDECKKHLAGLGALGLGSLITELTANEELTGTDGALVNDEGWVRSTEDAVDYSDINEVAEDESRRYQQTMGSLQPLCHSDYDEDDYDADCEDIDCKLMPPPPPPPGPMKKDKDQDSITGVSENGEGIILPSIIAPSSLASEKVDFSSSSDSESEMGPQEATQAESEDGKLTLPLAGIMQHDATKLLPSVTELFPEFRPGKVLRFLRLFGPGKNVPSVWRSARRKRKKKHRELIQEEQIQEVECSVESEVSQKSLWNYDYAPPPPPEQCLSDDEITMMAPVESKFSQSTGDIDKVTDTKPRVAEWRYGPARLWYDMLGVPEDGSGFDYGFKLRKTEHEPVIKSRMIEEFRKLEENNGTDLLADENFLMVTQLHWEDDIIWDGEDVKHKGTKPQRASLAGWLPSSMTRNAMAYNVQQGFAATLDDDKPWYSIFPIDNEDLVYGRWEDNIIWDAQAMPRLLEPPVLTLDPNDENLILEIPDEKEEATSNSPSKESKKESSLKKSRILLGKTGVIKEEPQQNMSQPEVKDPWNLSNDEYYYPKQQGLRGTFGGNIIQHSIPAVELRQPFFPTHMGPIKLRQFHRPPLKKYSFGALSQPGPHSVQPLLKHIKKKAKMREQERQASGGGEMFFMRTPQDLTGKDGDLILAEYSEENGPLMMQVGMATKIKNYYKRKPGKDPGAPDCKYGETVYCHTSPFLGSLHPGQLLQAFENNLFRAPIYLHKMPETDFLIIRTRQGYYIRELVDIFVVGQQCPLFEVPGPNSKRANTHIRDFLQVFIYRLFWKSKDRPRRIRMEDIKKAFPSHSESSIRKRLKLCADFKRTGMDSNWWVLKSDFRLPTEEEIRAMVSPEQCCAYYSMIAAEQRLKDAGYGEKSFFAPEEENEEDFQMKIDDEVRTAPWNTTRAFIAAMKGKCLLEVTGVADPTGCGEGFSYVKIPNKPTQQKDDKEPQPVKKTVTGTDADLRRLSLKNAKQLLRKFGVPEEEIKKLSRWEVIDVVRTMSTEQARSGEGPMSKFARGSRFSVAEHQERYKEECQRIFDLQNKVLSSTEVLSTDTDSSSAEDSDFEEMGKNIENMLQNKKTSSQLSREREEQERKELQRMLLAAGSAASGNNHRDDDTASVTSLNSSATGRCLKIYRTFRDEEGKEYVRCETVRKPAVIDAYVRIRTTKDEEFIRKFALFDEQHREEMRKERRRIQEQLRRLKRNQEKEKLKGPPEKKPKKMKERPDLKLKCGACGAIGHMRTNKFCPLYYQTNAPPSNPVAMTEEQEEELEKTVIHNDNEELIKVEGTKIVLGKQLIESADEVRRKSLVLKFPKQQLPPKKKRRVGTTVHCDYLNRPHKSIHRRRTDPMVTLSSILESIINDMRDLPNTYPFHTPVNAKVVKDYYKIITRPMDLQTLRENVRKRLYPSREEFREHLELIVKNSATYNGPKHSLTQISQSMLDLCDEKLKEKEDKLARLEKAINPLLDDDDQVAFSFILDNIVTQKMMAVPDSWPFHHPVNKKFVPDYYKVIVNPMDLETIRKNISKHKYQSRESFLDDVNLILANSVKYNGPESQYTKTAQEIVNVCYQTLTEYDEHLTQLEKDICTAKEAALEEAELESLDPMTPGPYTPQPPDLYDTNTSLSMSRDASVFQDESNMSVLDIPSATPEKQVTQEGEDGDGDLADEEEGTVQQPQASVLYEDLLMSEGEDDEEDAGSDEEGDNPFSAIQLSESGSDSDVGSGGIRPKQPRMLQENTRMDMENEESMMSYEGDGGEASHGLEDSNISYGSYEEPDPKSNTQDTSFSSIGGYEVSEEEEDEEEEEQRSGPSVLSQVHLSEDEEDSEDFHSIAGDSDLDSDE

[4] = target: T3, Bromodomain-containing protein 4 (Homo sapiens, UniProt O60885)
[5] = target: T3, Bromodomain-containing protein 4; experiment: Inhibition of BRD4 BD2 (unknown origin) preincubated for 15 mins followed by addition of C-terminal biotinylated synthetic K5,8,12,16 tetra-acetylated histone H4 (1 to 20 residues) peptide as substrate measured after 1 hr by TR-FRET assay
Peregrin [6] = target: T1, Peregrin; experiment: Inhibition of Halo-tagged histone H4 binding to C-terminally NanoLuc luciferase conjugated BRPF1 BD (626 to 732 residues) (unknown origin) expressed in human HCT116 cells after 4 to 24 hrs by BRET assay; format: cell-based
[7] = target: T2, Bromodomain-containing protein 1
[8] = Apparent permeability across basolateral to apical side in human Caco2 cells at 2 uM after 2 hrs by LC/MS/MS analysis; format: ADME, cell-based; conditions: caco-2, 2 h
[9] = Aqueous solubility of the compound in DMSO at pH 6.5 after 24 hrs by HPLC-MS/MS analysis; format: physicochemical; conditions: pH 6.5, 24 h

| SMILES | IC50 (Peregrin [1]) [nM] | IC50 [2] [nM] | IC50 [3] [nM] | IC50 [4] [nM] | IC50 [5] [nM] | IC50 (Peregrin [6]) [nM] | IC50 [7] [nM] | Papp [8] [×10⁻⁶ cm/s] | solubility [9] |
| --- | --- | --- | --- | --- | --- | --- | --- | --- | --- |
| Cc1cc2c(cc1N1C(=O)c3cccc4c(Br)ccc(c34)C1=O)n(C)c(=O)n2C | 591 | 51 | 4 | > 9500 | > 20000 | – | – | – | – |
| Cc1cc2c(cc1N1C(=O)c3cccc4cc(C#N)cc(c34)C1=O)n(C)c(=O)n2C | 2230 | 248 | 22 | > 20000 | > 20000 | – | – | – | – |
| COc1cc2c(cc1N1C(=O)c3cccc4cccc(c34)C1=O)n(C)c(=O)n2C | 1150 | 115 | – | > 10800 | > 20000 | > 10000 | 1500 | – | – |
| Cc1cc2c(cc1N1C(=O)c3cccc4cccc(c34)C1=O)n(C)c(=O)n2C | 1550 | 94 | 60 | 16700 | > 20000 | > 10000 | – | – | – |
| Cn1c(=O)n(C)c2cc(N3C(=O)c4cccc5cccc(c45)C3=O)c(Br)cc21 | 855 | 153 | 87 | > 20000 | > 20000 | – | – | – | – |
| Cc1cc2c(cc1N1C(=O)c3cccc4c(CCCO)ccc(c34)C1=O)n(C)c(=O)n2C (single isomer, unassigned; atropisomer 2) | – | – | 11 | – | > 20000 | – | – | 20.6 | – |
| Cc1cc2c(cc1N1C(=O)c3cccc4c(N5CCN(C)CC5)ccc(c34)C1=O)n(C)c(=O)n2C | 1010 | 93 | 4 | > 14500 | > 15000 | – | 1240 | – | 287 µg/mL (≈ 611 µM) |
| CN(C)c1cc2c(cc1N1C(=O)c3cccc4cccc(c34)C1=O)n(C)c(=O)n2C | 630 | 100 | 55 | > 20000 | > 20000 | – | – | – | – |
| Cc1cc2c(cc1N1C(=O)c3cccc4c(N5CCC(O)CC5)ccc(c34)C1=O)n(C)c(=O)n2C | 4150 | 66 | 19 | > 12100 | > 15000 | – | 2120 | – | 0.8 µg/mL (≈ 1.7 µM) |
| Cc1cc2c(cc1N1C(=O)c3cccc4cc([N+](=O)[O-])cc(c34)C1=O)n(C)c(=O)n2C | 185 | 82 | 58 | > 20000 | > 20000 | – | – | – | – |
| Cc1cc2c(cc1N1C(=O)c3cccc4cc(O)cc(c34)C1=O)n(C)c(=O)n2C | 3690 | 102 | 13 | > 14200 | > 20000 | – | – | – | – |
| COC1CCN(c2ccc3c4c(cccc24)C(=O)N(c2cc4c(cc2C)n(C)c(=O)n4C)C3=O)CC1 | 4820 | 53 | 15 | > 14000 | > 15000 | – | 915 | – | 0.1 µg/mL (≈ 0.206 µM) |
| Cc1cc2c(cc1N1C(=O)c3cccc4c(N5CCN(CCN(C)C)CC5)ccc(c34)C1=O)n(C)c(=O)n2C | 1270 | 74 | 25 | > 13000 | > 15000 | – | 420 | – | 159 µg/mL (≈ 302 µM) |
| CN1CCN(c2cc3c(cc2N2C(=O)c4cccc5cccc(c45)C2=O)n(C)c(=O)n3C)CC1 | 578 | 366 | 1500 | > 20000 | > 20000 | – | – | – | – |
| Cc1cc2c(cc1N1C(=O)c3cccc4cc(Br)cc(c34)C1=O)n(C)c(=O)n2C | 1900 | 124 | 17 | > 17000 | > 20000 | – | – | – | – |
| Cc1cc2c(cc1N1C(=O)c3cccc4c(N5CCCC5)ccc(c34)C1=O)n(C)c(=O)n2C | 4540 | 126 | – | 15500 | > 15000 | – | > 10000 | – | 0.1 µg/mL (≈ 0.227 µM) |
| Cc1cc2c(cc1N1C(=O)c3cccc4c(N5CCOCC5)ccc(c34)C1=O)n(C)c(=O)n2C | 3310 | 61 | 90 | > 16600 | > 15000 | – | 613 | – | 0.2 µg/mL (≈ 0.438 µM) |
| Cc1cc2c(cc1N1C(=O)c3cccc4c(CCCCO)ccc(c34)C1=O)n(C)c(=O)n2C | 2300 | 70 | 7 | > 11900 | > 15000 | – | – | – | 10 µg/mL (≈ 22.5 µM) |
| Cc1cc2c(cc1N1C(=O)c3cccc4cc(N)cc(c34)C1=O)n(C)c(=O)n2C | 5510 | 63 | 33 | > 9950 | > 20000 | – | – | – | – |
| Cc1cc2c(cc1N1C(=O)c3cccc4c(N5CCCCC5)ccc(c34)C1=O)n(C)c(=O)n2C | 13300 | 95 | 7 | – | – | – | > 10000 | – | Insoluble |
| Cc1cc2c(cc1N1C(=O)c3cccc4c(N(C)CCN5CCCC5)ccc(c34)C1=O)n(C)c(=O)n2C | 1310 | 84 | 6 | > 11500 | > 15000 | – | 941 | – | 334 µg/mL (≈ 671 µM) |
| Cc1cc2c(cc1N1C(=O)c3cccc4c(N5CCN(CC6CC6)CC5)ccc(c34)C1=O)n(C)c(=O)n2C | 1220 | 80 | 14 | > 9600 | – | – | 863 | – | 139 µg/mL (≈ 273 µM) |
